Like-named read-outs stand apart in the source and are kept apart here.
Columns and labels:
AR1-651 = target: T1, AR1-651 (Homo sapiens, UniProt P10275); assay: MMTV-luc dual luciferase reporter assay, AR1-651-induced activity in 22RV1 cells; format: cell-based; conditions: for MMTV-luc Activity (%), AR1-651-induced: 22RV1, AR1-651 +, 12 h;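 for all read-outs here: luminometric read-out of firefly luciferase signal normalized to Renilla luciferase signal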
T1 construct: FLAG; expressed in transfected cells; host or cells: 22RV1
T1 sequence (P10275 1-651): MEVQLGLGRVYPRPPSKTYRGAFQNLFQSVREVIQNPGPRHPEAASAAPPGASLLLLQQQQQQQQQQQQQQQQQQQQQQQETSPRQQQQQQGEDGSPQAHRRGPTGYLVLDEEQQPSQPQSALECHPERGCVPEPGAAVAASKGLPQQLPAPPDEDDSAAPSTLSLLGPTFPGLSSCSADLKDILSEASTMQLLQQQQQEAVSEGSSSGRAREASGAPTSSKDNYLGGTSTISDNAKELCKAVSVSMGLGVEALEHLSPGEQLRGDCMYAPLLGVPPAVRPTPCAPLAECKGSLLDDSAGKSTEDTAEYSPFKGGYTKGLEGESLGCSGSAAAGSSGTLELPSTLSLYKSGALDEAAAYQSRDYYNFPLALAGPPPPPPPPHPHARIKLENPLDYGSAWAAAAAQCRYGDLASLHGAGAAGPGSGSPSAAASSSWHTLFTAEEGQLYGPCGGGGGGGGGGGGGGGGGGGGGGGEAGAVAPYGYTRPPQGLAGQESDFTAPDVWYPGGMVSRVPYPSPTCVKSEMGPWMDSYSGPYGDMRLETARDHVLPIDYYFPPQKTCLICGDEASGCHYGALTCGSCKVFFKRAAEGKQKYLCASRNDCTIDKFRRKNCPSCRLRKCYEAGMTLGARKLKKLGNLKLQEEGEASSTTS
Procedure: (§1) Renilla and firefly activities were then determined by luminometry using the Dual-Luciferase Reporter Assay System (Promega) and the ratio calculated. Results were expressed as the ratio of firefly to Renilla luciferase activity.

AR-FL = AR-FL (Homo sapiens, UniProt P10275); assay: MMTV-luc dual luciferase reporter assay, DHT-induced AR activity in 22RV1 cells; format: cell-based; conditions: 22RV1, DHT +, compound 10 µM, 12 h, mean ± s.d., n=3
Procedure: as §1
After transient transfection of MMTV-luc and Renilla-luc in 22RV1, the MMTV-luc
activities were stimulated by androgen DHT. Then cells were treated with indicated
expressed as the ratio of luciferase activity. Values are presented as mean ± s.d., n =

[1] = compound 10 µM, mean ± s.d., n=3
[2] = 22Rv1, read-out: MMTV-luc Activity (%), AR1-651-induced, 22RV1, AR1-651 +, compound 10 µM, 12 h, mean ± s.d., n=3
[3] = 22Rv1, read-out: MMTV-luc Activity (%), AR1-651-induced
[4] = 22Rv1, read-out: MMTV-luc Activity (%), AR1-651-induced, 22RV1, AR1-651 +, compound 1 µM, 12 h

Sequence of AR-FL (P10275 whole entry): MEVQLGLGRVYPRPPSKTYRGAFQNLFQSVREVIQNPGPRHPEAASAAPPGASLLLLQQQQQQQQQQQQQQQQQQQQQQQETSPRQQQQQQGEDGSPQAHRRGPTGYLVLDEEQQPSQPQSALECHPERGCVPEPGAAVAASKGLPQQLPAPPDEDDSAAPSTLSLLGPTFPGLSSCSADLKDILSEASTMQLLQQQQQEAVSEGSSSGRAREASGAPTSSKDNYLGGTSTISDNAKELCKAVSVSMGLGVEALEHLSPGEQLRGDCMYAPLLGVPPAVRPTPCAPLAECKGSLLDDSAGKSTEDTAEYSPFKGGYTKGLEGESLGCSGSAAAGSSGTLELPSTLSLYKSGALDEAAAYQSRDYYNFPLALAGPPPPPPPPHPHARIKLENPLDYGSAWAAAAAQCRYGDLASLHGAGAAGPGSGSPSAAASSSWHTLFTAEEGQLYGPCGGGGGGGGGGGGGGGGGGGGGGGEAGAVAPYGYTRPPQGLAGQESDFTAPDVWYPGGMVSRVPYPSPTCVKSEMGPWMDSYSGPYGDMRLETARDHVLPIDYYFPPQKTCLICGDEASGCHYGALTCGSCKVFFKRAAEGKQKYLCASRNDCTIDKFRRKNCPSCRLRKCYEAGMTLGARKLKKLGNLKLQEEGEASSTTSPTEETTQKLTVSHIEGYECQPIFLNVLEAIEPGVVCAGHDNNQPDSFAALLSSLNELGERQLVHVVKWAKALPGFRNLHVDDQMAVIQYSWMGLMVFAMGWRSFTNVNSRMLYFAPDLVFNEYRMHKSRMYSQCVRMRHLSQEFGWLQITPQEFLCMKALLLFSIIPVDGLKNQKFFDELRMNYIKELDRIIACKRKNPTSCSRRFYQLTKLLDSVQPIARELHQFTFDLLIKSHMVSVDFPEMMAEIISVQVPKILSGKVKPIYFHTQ

Row | Compound | MMTV-luc Activity (%), AR1-651-induced (AR1-651; [1]) [%] | activity at 10 µM (AR1-651; [2]) [%] | also measured
1 | Myricitrin | 102.1 | – | –
2 | O=C(/C=C/c1ccc(O)c(O)c1)O[C@H](Cc1ccc(O)c(O)c1)C(=O)O [Rosmarinic acid] | – | 115 | –
3 | CCNC(=O)CC[C@H](N)C(=O)O [L-Theanine] | – | 61.9 | –
4 | C=C1C[C@@]2(O)O[C@@]3(C[C@H]2C(C)C)[C@@H](C)CC[C@@H]13 [Curcumol] | 43.7 | – | MMTV-luc Activity (%), AR1-651-induced (AR1-651; compound 1 µM): 86.4±7.7%; MMTV-luc Activity (%), DHT-induced (AR-FL): 90.0±9.2%
5 | D-Tanshinone I | 138.3 | – | –
6 | CC(C)(c1ccc(OCC(O)CO)cc1)c1ccc(OCC(O)CCl)cc1 (stereo not drawn) [EPI-001, reference compound] | – | – | MMTV-luc Activity (%), AR1-651-induced (AR1-651; compound 25 µM): 54.2%
7 | CC(C)(C)[C@]1(O)CC2OC(=O)CC23C(=O)OC2OC(=O)[C@H](O)C231 (some centres unmarked) [Bilobalide] | – | – | activity at 10 µM (AR1-651; [3]): 98.7 ± 1.1%
8 | O=C(O)C1=C[C@@H](O)[C@@H](O)[C@H](O)C1 [shikimic acid] | – | 104 | –
9 | O=C(O)[C@H]1O[C@@H](Oc2cc3oc(-c4ccccc4)cc(=O)c3c(O)c2O)[C@H](O)[C@@H](O)[C@@H]1O [Baicalin] | – | 113 | –
10 | Cc1coc2c1C(=O)C(=O)c1c-2ccc2c1CCCC2(C)C [Tanshinone IIA] | – | 105 | –
11 | O=C1C=CC2(CCC23C=CC(=O)O3)O1 (centres unmarked) [Anemonin] | – | 112 | –
12 | CC1(C)[C@@H](O)CC[C@]2(C)[C@H]3C(=O)C=C4[C@@H]5C[C@@](C)(C(=O)O)CC[C@]5(C)CC[C@@]4(C)[C@]3(C)CC[C@@H]12 [glycyrrhetic acid] | 308.3 | – | MMTV-luc Activity (%), DHT-induced (AR-FL): 101.3±11.9%
13 | C=C1CC[C@@H]2[C@](C)(CO)[C@H](O)CC[C@@]2(C)[C@@H]1C/C=C1/C(=O)OC[C@H]1O [Andrographolide] | – | 59.5 | activity at 1 µM (AR1-651; [4]): 70%
14 | O=C([O-])C(O)Cc1ccc(O)c(O)c1.[Na+] (centres unmarked) [Sodium Danshensu] | 73.3 | – | MMTV-luc Activity (%), DHT-induced (AR-FL): 93.0±14.7%
15 | C=CCc1ccc(O)c(-c2cc(CC=C)ccc2O)c1 [Magnolol] | – | – | activity at 1 µM (AR1-651; [3]): 60.6%; activity at 10 µM (AR1-651; [3]): 59.3%
16 | O=C1c2c(O)cc(O)cc2O[C@H](c2cc(O)c(O)c(O)c2)[C@H]1O [Dihydromyricetin] | – | 89.8 ± 8 | –
17 | O=C1CCC[C@@H]2[C@H]3CCC[N@+]4([O-])CCC[C@@H](CN12)[C@@H]34 [Ammothamnine] | 105.7 | – | MMTV-luc Activity (%), DHT-induced (AR-FL): 119.1±20.9%
18 | O=c1c(O[C@@H]2O[C@H](CO)[C@@H](O)[C@H](O)[C@H]2O)c(-c2ccc(O)c(O)c2)oc2cc(O)cc(O)c12 [Isoquercitrin] | – | 95.5 | –
19 | CC(C)[C@@H](C)/C=C/[C@@H](C)[C@H]1CC[C@H]2C3=CC=C4C[C@@H](O)CC[C@]4(C)[C@H]3CC[C@]12C [Ergosterol] | – | 96.3 ± 6.1 | –
20 | O=c1c(-c2ccc(O)cc2)coc2cc(O)ccc12 [Daidzein] | – | 177 | –
21 | C[C@@H]1CC[C@@]2(OC1)O[C@H]1C[C@H]3[C@@H]4CC=C5C[C@@H](O)CC[C@]5(C)[C@H]4CC[C@]3(C)[C@H]1[C@@H]2C [Diosgenin] | – | 148 | –
22 | COc1cc(/C=C/C(=O)CC(=O)/C=C/c2ccc(O)c(OC)c2)ccc1O [Curcumin] | – | 178 | –
23 | O=Cc1ccc(O)c(O)c1 [Protocatechuic aldehyde] | 62.5 | – | MMTV-luc Activity (%), DHT-induced (AR-FL): 83.1±0.1%

Row | Compound | MMTV-luc Activity (%), AR1-651-induced (AR1-651; [1]) [%] | activity at 10 µM (AR1-651; [2]) [%] | also measured
24 | O=c1c(-c2ccc(O)cc2)coc2cc(O)cc(O)c12 [Genistein] | – | 157 | –
25 | OCc1ccc(O[C@@H]2O[C@H](CO)[C@@H](O)[C@H](O)[C@H]2O)cc1 [Gastrodin] | – | – | activity at 10 µM (AR1-651; [3]): 70 ± 3.7%
26 | CC(C)=CCC[C@](C)(O[C@@H]1O[C@H](CO)[C@@H](O)[C@H](O)[C@H]1O)[C@H]1CC[C@]2(C)[C@@H]1[C@H](O)C[C@@H]1[C@@]3(C)CC[C@H](O)C(C)(C)[C@@H]3[C@@H](O[C@@H]3O[C@H](CO)[C@@H](O)[C@H](O)[C@H]3O)C[C@]12C [Ginsenoside Rg1] | – | 77.2 | –
27 | CC1=CC(=O)c2c(O)cccc2C1=O [Plumbagin] | – | 28.8 ± 7.9 | activity at 1 µM (AR1-651; [4]): 128%
28 | CN1CCc2cc3c(cc2[C@H]1[C@@H]1OC(=O)c2c1ccc1c2OCO1)OCO3 [d-Bicuculline] | 112.1 | – | MMTV-luc Activity (%), DHT-induced (AR-FL): 75.0±11.5%
29 | Cc1cc(O)c(C(=O)CCC(C)C)c(=O)o1 [Pogostone] | 157.2 | – | MMTV-luc Activity (%), DHT-induced (AR-FL): 92.3±13.3%
30 | C=C(C)[C@@H]1CC[C@]2(C(=O)O)CC[C@]3(C)[C@H](CC[C@@H]4[C@@]5(C)CC[C@H](O)C(C)(C)[C@@H]5CC[C@]43C)[C@@H]12 [Betulinic acid] | – | 65.2 | –
31 | O[C@H]1[C@H]2c3cc4c(cc3CN3CCC(=C[C@@H]1O)[C@H]23)OCO4 [Lycorine] | – | – | activity at 10 µM (AR1-651; [3]): 66%
32 | Cc1coc2c1C(=O)C(=O)c1c-2ccc2c(C)cccc12 [Tanshinone I] | – | 99.9 ± 4.1 | –
33 | C=C[C@H]1[C@H](O[C@@H]2O[C@H](CO)[C@@H](O)[C@H](O)[C@H]2O)OC=C2C(=O)OCC[C@]21O [Swertiamain] | 64.7±7.5 | – | MMTV-luc Activity (%), DHT-induced (AR-FL): 80.9±8.5%
34 | O=c1cc(-c2ccc(O)c(O)c2)oc2cc(O)cc(O)c12 [Luteolin] | – | 82.7 ± 4.5 | –
35 | COc1cc(/C=C/c2ccc(O)cc2)cc(OC)c1 [Pterostilbene] | – | 90 ± 5.4 | –
36 | O=C(CCc1ccc(O)cc1)c1c(O)cc(O)cc1O[C@@H]1O[C@H](CO)[C@@H](O)[C@H](O)[C@H]1O [Phlorizin] | – | 52.9 | activity at 1 µM (AR1-651; [4]): 126%
37 | COc1ccc([C@@H]2CC(=O)c3c(O)cc(O[C@@H]4O[C@H](CO[C@@H]5O[C@@H](C)[C@H](O)[C@@H](O)[C@H]5O)[C@@H](O)[C@H](O)[C@H]4O)cc3O2)cc1O [Hesperidin] | 110.2±13 | – | MMTV-luc Activity (%), DHT-induced (AR-FL): 85.5±23.9%
38 | CC1(C)CC[C@]2(C(=O)O)CC[C@]3(C)C(=CC[C@@H]4[C@@]5(C)CC[C@H](O)C(C)(C)[C@@H]5CC[C@]43C)[C@@H]2C1 [Oleanic acid] | 153.4 | – | MMTV-luc Activity (%), DHT-induced (AR-FL): 122.4±7.5%
39 | O=c1c(-c2ccc(O)cc2)coc2c([C@@H]3O[C@H](CO)[C@@H](O)[C@H](O)[C@H]3O)c(O)ccc12 [Puerarin] | – | 80.1 ± 1.8 | –
40 | C[C@@H]1O[C@@H](OC[C@H]2O[C@@H](Oc3c(-c4ccc(O)c(O)c4)oc4cc(O)cc(O)c4c3=O)[C@H](O)[C@@H](O)[C@@H]2O)[C@H](O)[C@H](O)[C@H]1O [Rutin] | – | 91.4 | –
41 | O=C(/C=C/c1ccc(O)c2c1[C@H](C(=O)O[C@H](Cc1ccc(O)c(O)c1)C(=O)O)[C@@H](c1ccc(O)c(O)c1)O2)O[C@H](Cc1ccc(O)c(O)c1)C(=O)O [lithospermic acid B] | 96.3±4.2 | – | MMTV-luc Activity (%), DHT-induced (AR-FL): 115.9±27.9%
42 | COc1cc(-c2oc3cc(O)cc(O)c3c(=O)c2O)ccc1O [Isorhamnetin] | – | – | activity at 10 µM (AR1-651; [3]): 139%
43 | Asiaticoside | 150.9 | – | –
44 | C[C@@]12C[C@@]3(O)O[C@@H](O1)[C@]1(COC(=O)c4ccccc4)[C@H]3C[C@@]12O[C@@H]1O[C@H](CO)[C@@H](O)[C@H](O)[C@H]1O [Paeoniflorin] | – | 88.5 | –
45 | astragalosideⅠ | 87.0±5.2 | – | MMTV-luc Activity (%), DHT-induced (AR-FL): 117.8±5.2%
